Source: patent US20240189440A1, “TLR7 AND TLR8 AGONISTS FOR THE TREATMENT OF CANCER AND/OR INFECTIOUS DISEASES” (priority 2021, published 2024)
Where two headings read alike, the source gives them in different places.

Legend:
[1] = test system: NFκB pathway in Ramos-blue cells; experiment: Ramos-Blue NFκB/SEAP reporter assay with cysteine-capped linker-payloads, 72 h (Example 15); assay type: cell-based; details: read-out: Relative Activation
Experimental: A 50 mM cysteine stock was prepared in 0.1 M PBS pH 7.4. 10 equivalents of 50 mM cysteine were added to 1 equivalent of linker-payload to create a 2.50 mM solution. The reaction was vortexed and sat at room temperature for an hour to allow for the Michael addition to occur. After an hour, an aliquot was taken and run via UPLC-MS to ensure for the complete Michael reaction. The reaction was diluted to 1 mM using 0.1M PBS pH 7.4. The 1 mM solution was diluted to 500 uM and 50 uM in a 96-well plate to afford a final concentration of 50 uM and 5 uM in the cell suspension. The cell density and viability were calculated using the Countess Cell Counter and the proper volume of cells was removed in order to have a seeding density of 0.2×10^6 cells/mL per well. 135 uL of cell suspension was added to each well in a 96-well plate along with 15 uL of the corresponding linker-payload treatment. Each concentration was run in triplicate and incubated at 37° C. with 5% CO2 for 72 hours.
Invivogen's QUANTI-Blue™ solution was prepared by adding 200 uL of QB reagent and 200 uL of QB buffer to 19.6 mL of water. The resulting solution was vortexed and incubated at room temperature for ten minutes. The 96-well plate was centrifuged at 1990 rpm for ten minutes. Then, 40 uL of cell supernatant was added to 160 uL of the prepared QUANTI-Blue™ solution and incubated at 37° C. for 24 hours. The plate was read using the Molecular Devices i3x plate reader at a wavelength of 630 nm to determine the amount of SEAP production.

[2] = test system: NFκB induction (SEAP) in Ramos-blue cells; experiment: NFkB activation in Ramos-Blue cells for additional TLR7 agonists (Example 31); assay type: cell-based; details: for EC (2-fold SEAP signal): lowest concentration that doubles the SEAP background (nontreated) signal, read-out: Lowest concentration to induce 2x SEAP; for Fold increase in SEAP signal at lowest active concentration: versus nontreated background
Experimental: A 3× serial dilution was performed in 10% DMSO in PBS for each payload to have a final range of concentration from 1000 uM to 76 nM. Ramos-blue cells (InvivoGen, cat #rms-sp) were cultured using high glucose DMEM media supplied with 10% fetal bovine serum according to the manufacturer guidelines. The media was supplemented with 50 U/mL penicillin, 50 ug/mL streptomycin, and 100 ug/mL normocin to prevent bacterial contamination. The cell density and viability were calculated using a Countess Cell Counter and the proper volume of cells was removed in order to have a seeding density of 0.2×10^6 cells/mL per well. 135 uL of the cell suspension was added to each well in a 96-well plate along with 15 uL of the corresponding payload treatment. Each assay point was run in triplicate and the plate was incubated at 37° C. with 5% CO2 for 24 or 72 hours. In order to assess the NFκB induction, the QUANTI-Blue™ solution was prepared by adding 200 uL of QB reagent (InVivogen cat #rep-qbs) and 200 uL of QB buffer to 19.6 mL of water. The resulting solution was vortexed and incubated at room temperature for ten minutes. The 96-well plate was centrifuged at 1990 rpm for ten minutes and 40 uL of the cell supernatant was added to 160 uL of the prepared QUANTI-Blue™ solution. The QB reaction plate was incubated at 37° C. for 24 hours. The plate was read using the Molecular Devices i3x plate reader at a wavelength of 630 nm to determine the amount of SEAP production. The table below illustrates the lowest concentration of each compound that results in a doubling of the SEAP background (nontreated) signal. As illustrated, compounds of the invention ranged from low nM to low micromolar.

[3] = Linker-Payload Dose 5 uM, cysteine-capped, 72 hours, SEAP at 630 nm
[4] = Linker-Payload Dose 50 uM, cysteine-capped, 72 hours, SEAP at 630 nm

Compound | EC (2-fold SEAP signal) [2] | Fold increase in SEAP signal at lowest active concentration [2] | other results
CCOCc1nc2c(NC(=O)CCCCCN3C(=O)C=CC3=O)nc3ccccc3c2n1CC(C)(C)O [Mc_Resiquimod, 6-(2,5-dioxo-2,5-dihydro-1H-pyrrol-1-yl)-N-(2-(ethoxymethyl)-1-(2-hydroxy-2-methylpropyl)-1H-imidazo[4,5-c]quinolin-4-yl)hexanamide] | – | – | activation at 5 µM [1, 3]: 17.6%; activation at 50 µM [1, 4]: -21%
CCCCc1nc2c(N)nc3ccccc3c2n1Cc1cccc(O)c1 [21f, 3-((4-amino-2-butyl-1H-imidazo[4,5-c]quinolin-1-yl)methyl)phenol] | 0.21 µM | 2.902 | –
CCCCc1nc2c(N)nc3ccccc3c2n1Cc1ccc(CNC(=O)CCCCCN2C(=O)C=CC2=O)cc1 [Mc_E66, N-(4-((4-amino-2-butyl-1H-imidazo[4,5-c]quinolin-1-yl)methyl)benzyl)-6-(2,5-dioxo-2,5-dihydro-1H-pyrrol-1-yl)hexanamide] | – | – | activation at 5 µM [1, 3]: 119%; activation at 50 µM [1, 4]: -52.3%
CCOCc1cc2c(NC(=O)C(CCCNC(N)=O)NC(=O)C(NC(=O)CCCCCN3C(=O)C=CC3=O)C(C)C)nc3ccccc3c2n1CC(C)(C)O (stereo not shown) [Mc_ValCit_Resiquimod, 6-(2,5-Dioxo-2,5-dihydro-1H-pyrrol-1-yl)-N-(1-(1-(2-(ethoxymethyl)-1-(2-hydroxy-2-methylpropyl)-1H-pyrrolo[3,2-c]quinolin-4-ylamino)-1-oxo-5-ureidopentan-2-ylamino)-3-methyl-1-oxobutan-2-yl)hexanamide] | – | – | activation at 5 µM ([1]; 72 h): 11.4%; activation at 50 µM ([1]; 72 h): -23.1%
CCCCc1nc2c(N)nc3ccccc3c2n1Cc1ccc(NC(=O)CCCNC(=O)OC(C)(C)C)cc1 [20c, tert-butyl(4-((4-((4-amino-2-butyl-1H-imidazo[4,5-c]quinolin-1-yl)methyl)phenyl)amino)-4-oxobutyl)carbamate] | 0.0076 µM | 2.352 | –
CCCCc1nc2c(N)nc3ccccc3c2n1Cc1ccc(CNC(=O)OCc2ccc(NC(=O)C(CCCNC(N)=O)NC(=O)C(NC(=O)CCCCCN3C(=O)C=CC3=O)C(C)C)cc2)cc1 (stereo not shown) [Mc_ValCitPABC_E66, 4-(2-(2-(6-(2,5-Dioxo-2,5-dihydro-1H-pyrrol-1-yl)hexanamido)-3-methylbutanamido)-5-ureidopentanamido)benzyl 4-((4-amino-2-butyl-1H-imidazo[4,5-c]quinolin-1-yl)methyl)benzylcarbamate] | – | – | activation at 5 µM [1, 3]: 7.15%; activation at 50 µM [1, 4]: -19.7%
CCCCc1nc2c(N)nc3ccccc3c2n1Cc1ccc(NC(=O)CCN)cc1 [20g, 3-amino-N-(4-((4-amino-2-butyl-1H-imidazo[4,5-c]quinolin-1-yl)methyl)phenyl)propanamide] | 0.62 µM | 2.638 | –
CCCCc1nc2c(N)nc3ccccc3c2n1Cc1ccc(NC(=O)CCCCCN2C(=O)C=CC2=O)cc1 [Mc_E104, N-(4-((4-amino-2-butyl-1H-imidazo[4,5-c]quinolin-1-yl)methyl)phenyl)-6-(2,5-dioxo-2,5-dihydro-1H-pyrrol-1-yl)hexanamide] | – | – | activation at 5 µM [1, 3]: 704%; activation at 50 µM [1, 4]: -52%
CCCCc1nc2c(N)nc3ccccc3c2n1Cc1ccc(O)cc1 [22f, 4-((4-amino-2-butyl-1H-imidazo[4,5-c]quinolin-1-yl)methyl)phenol] | 0.069 µM | 2.269 | –
CCCCc1nc2c(N)nc3ccccc3c2n1Cc1cccc(OC)c1 [21e, 2-butyl-1-(3-methoxybenzyl)-1H-imidazo[4,5-c]quinoline-4-amine] | 0.62 µM | 5.753 | –
CCCCc1nc2c(N)nc3ccccc3c2n1Cc1cccc(N)c1 [23f, 1-(3-aminobenzyl)-2-butyl-1H-imidazo[4,5-c]quinoline-4-amine] | 0.023 µM | 1.946 | –
CCCCc1nc2c(N)nc3ccccc3c2n1Cc1ccc(OC)cc1 [22e, 2-butyl-1-(4-methoxybenzyl)-1H-imidazo[4,5-c]quinolin-4-amine] | 0.21 µM | 2.537 | –
CCCCOC(=O)Cc1ccc(Cn2c(CCCC)nc3c(N)nc4ccccc4c32)cc1 [20o, Butyl 2-(4-((4-amino-2-butyl-1H-imidazo[4,5-c]quinolin-1-yl)methyl)phenyl)acetate] | 0.069 µM | 4.158 | –
CCCCc1nc2c(N)nc3ccccc3c2n1Cc1ccc(NC(=O)OCC)cc1 [20m, ethyl (4-((4-amino-2-butyl-1H-imidazo[4,5-c]quinolin-1-yl)methyl)phenyl)carbamate] | 0.023 µM | 3.188 | –
CCCCc1nc2c(N)nc3ccccc3c2n1Cc1ccc(NC(=O)CCCCCNC(=O)OC(C)(C)C)cc1 [20e, tert-butyl(6-((4-((4-amino-2-butyl-1H-imidazo[4,5-c]quinolin-1-yl)methyl)phenyl)amino)-6-oxohexyl)carbamate] | 0.069 µM | 2.983 | –
CCCCc1nc2c(N)nc3ccccc3c2n1Cc1ccc(NC(=O)CCCCNC(=O)OC(C)(C)C)cc1 [20d, tert-butyl(5-((4-((4-amino-2-butyl-1H-imidazo[4,5-c]quinolin-1-yl)methyl)phenyl)amino)-5-oxopentyl)carbamate] | 0.0076 µM | 2.222 | –
CCCCc1nc2c(N)nc3ccccc3c2n1Cc1ccc(NC(=O)CCCCCN)cc1 [20j, 6-amino-N-(4-((4-amino-2-butyl-1H-imidazo[4,5-c]quinolin-1-yl)methyl)phenyl)hexanamide] | 0.21 µM | 2.802 | –
CCCCc1nc2c(N)nc3ccccc3c2n1Cc1ccc(NC(=O)OC(C)C)cc1 [20n, Isopropyl (4-((4-amino-2-butyl-1H-imidazo[4,5-c]quinolin-1-yl)methyl)phenyl)carbamate] | 0.0076 µM | 1.925 | –
CCCCc1nc2c(N)nc3ccccc3c2n1Cc1ccc(NC(=O)CN)cc1 [20f, 2-amino-N-(4-((4-amino-2-butyl-1H-imidazo[4,5-c]quinolin-1-yl)methyl)phenyl)acetamide] | 0.069 µM | 2.225 | –
(3-((4-((4-amino-2-butyl-1H-imidazo[4,5-c]quinolin-1-yl)methyl)phenyl)amino)-3-oxopropyl)carbamate [20b] | 0.0076 µM | 4.416 | –
CCCCC(=O)Nc1ccc(Cn2c(CCCC)nc3c(N)nc4ccccc4c32)cc1 [20k, N-(4-((4-amino-2-butyl-1H-imidazo[4,5-c]quinolin-1-yl)methyl)phenyl)pentanamide] | 0.0076 µM | 2.398 | –
CCCCc1nc2c(N)nc3ccccc3c2n1Cc1cccc(NC(=O)OC(C)(C)C)c1 [23e, Tert-butyl (3-((4-amino-2-butyl-1H-imidazo[4,5-c]quinoline-1-yl)methyl)phenyl)carbamate] | 1.87 µM | 4.344 | –
CCCCc1nc2c(N)nc3ccccc3c2n1Cc1ccc(NC(C)=O)cc1 [20l, N-(4-((4-amino-2-butyl-1H-imidazo[4,5-c]quinolin-1-yl)methyl)phenyl)acetamide] | 0.023 µM | 2.11 | –
